Laboratory results: patent US20060019410A1, “Apparatus, kits and methods for evaluating binding interactions, for detecting and quantifying binding molecules, and for sample preparation” (Qualyst, Inc., priority 2004, published 2006)

What was measured:
[1] = system: AAG; settings: reported; cited from earlier work
[2] = reported; cited from earlier work
[3] = target: T1, HSA (Homo sapiens, UniProt P02768); settings: 1 μM drug + 1 μM DS in HSA; 10 mg DCC bed
Method: Set-Up of Incubation Study. […] Allow samples to sit at room temperature for one hour.
DCC Extraction Procedure; Protein Precipitation Procedure; Final Sample Preparation. Performed as described in Example 1 and 3.
Chemical Analysis. The analysis of DS and the internal standard is conducted with liquid chromatography coupled to mass spectrometry with electrospray ionization. For a given sample, the peak area of the DS and the internal standard are measured and a ratio (PAR) of these two values is determined.

[4] = target: T1, HSA; test: percent recovery from HSA with the 96-well ACCUPRO DCC device; assay type: in vitro ADME
Method: Chemical Analysis. […] For a given sample, the peak areas of the particular drug and its internal standard are measured and a ratio of these two values is determined. The peak area ratio (PAR) of the (+) DCC-extracted sample is divided by its corresponding (−) DCC extracted sample PAR to determine a percent recovery value. This recovery value is not a % HSA bound value.
Preparation of DCC plate. Prepare a DCC filter plate with 5 mg and 10 mg bed sizes as described in Example 1 and 3.
Set-Up of Incubation Study.

T1 sequence (P02768 25-609): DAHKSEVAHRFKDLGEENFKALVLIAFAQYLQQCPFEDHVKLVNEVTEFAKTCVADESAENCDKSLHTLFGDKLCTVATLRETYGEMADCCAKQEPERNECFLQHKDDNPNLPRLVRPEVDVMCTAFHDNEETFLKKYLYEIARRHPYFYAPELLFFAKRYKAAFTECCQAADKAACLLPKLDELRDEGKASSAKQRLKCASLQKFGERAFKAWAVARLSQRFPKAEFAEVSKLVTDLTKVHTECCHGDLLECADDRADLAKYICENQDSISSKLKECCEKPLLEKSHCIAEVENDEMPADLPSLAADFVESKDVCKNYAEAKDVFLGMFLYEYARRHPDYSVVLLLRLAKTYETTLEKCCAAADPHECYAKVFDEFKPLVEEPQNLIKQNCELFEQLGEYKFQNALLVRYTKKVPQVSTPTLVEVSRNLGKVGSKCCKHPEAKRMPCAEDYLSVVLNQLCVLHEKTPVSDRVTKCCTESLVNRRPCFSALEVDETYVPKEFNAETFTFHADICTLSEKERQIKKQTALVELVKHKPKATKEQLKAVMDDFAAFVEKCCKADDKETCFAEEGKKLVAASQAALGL

| SMILES | affinity to AAG / HSA [1] | plasma bound [2] | DS (dansylsarcosine) PAR in final sample preparation [3] | percent recovery (relative ranking) ([4]; HSA, naproxen versus ketorolac) | percent recovery from HSA ([4]; drug at 1 μM, 5 mg and 10 mg DCC bed, compared with the usual concentrations (217 μM and 0.5 μM)) |
| --- | --- | --- | --- | --- | --- |
| CN(C)CCCN1c2ccccc2Sc2ccc(Cl)cc21 [Chlorpromazine] | high affinity to AAG and not HSA | 95-98% | – | – | – |
| O=C(c1ccccc1)c1ccc2n1CCC2C(=O)O (centres unmarked) [Ketorolac] | – | – | higher PAR | lower percent recovery | comparable to values obtained above |
